Test results: US7629150B2, “Transformed cell harboring DNA or RNA encoding sugar chain synthesizing agent having β1,3-N-acetylglucosaminyltransferase activity” (Kyowa Hakko Kirin Co., Ltd., priority 2000, dated 2009)

Tests used:
Type in all cases: biochemical
[1] = molecular target: T1, G6sec2 (Homo sapiens, UniProt Q9BYG0); test: β1,3-N-acetylglucosaminyltransferase activity using pyridylaminated oligosaccharides as substrates; details: 37° C., 14.5 hours
T1 construct: made in house; host or cells: Sf21 insect cells infected with pVL1393-F2G6sec2-derived recombinant baculovirus
T1 sequence (Q9BYG0 39-378): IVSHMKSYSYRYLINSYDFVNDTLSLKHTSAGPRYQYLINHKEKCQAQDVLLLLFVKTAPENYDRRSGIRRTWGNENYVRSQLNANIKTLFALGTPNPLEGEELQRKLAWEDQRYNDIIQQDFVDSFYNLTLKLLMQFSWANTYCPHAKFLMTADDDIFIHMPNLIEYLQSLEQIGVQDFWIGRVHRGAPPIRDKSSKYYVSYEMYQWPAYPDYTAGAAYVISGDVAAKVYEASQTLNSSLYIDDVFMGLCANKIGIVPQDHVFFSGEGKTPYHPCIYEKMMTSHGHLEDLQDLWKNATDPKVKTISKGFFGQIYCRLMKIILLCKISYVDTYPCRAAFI
Description: After carrying out the reaction at 37° C. for 14.5 hours in 30 μl of an assay solution [150 mmol/l sodium cacodylate (pH 7.2), 50 mmol/l UDP-GlcNAc (manufactured by SIGMA), 0.4% Triton CF-54, 10 mmol/l MnCl2, 50 μmol/l pyridylaminated sugar chain substrate, a purified enzyme solution (G6sec2)], the product was detected by HPLC. The purified enzyme (G6sec2) was obtained according to the method shown in Example 8(6). The purified enzyme (280 μl) was prepared from 30 ml of a culture supernatant of Sf21 infected with the recombinant virus derived from pVL1393-F2G6sec2, and the assay was carried out using 5 μl thereof. As substrates, LnNT, lacto-N-tetraose (Galβ1-3GlcNAcβ1-3Galβ1-4Glc (hereinafter referred to as “LNT”), lacto-N-fucopentaose II (Galβ1-3(Fucα1-4)GlcNAcβ1-3Galβ1-4Glc; hereinafter referred to as “LNFP-II”), lacto-N-fucopentaose III (Galβ1-4(Fucα1-3)GlcNAcβ1-3Galβ1-4Glc; hereinafter referred to as “LNFP-III”), lacto-N-fucopentaose V (Galβ1-3GlcNAcβ1-3Galβ1-4(Fucα1-3)Glc; hereinafter referred to as “LNFP-V”), and lacto-N-difucohexaose II (Galβ1-3(Fucα1-4)GlcNAcβ1-3Galβ1-4(Fucα1-3)Glc; hereinafter referred to as “LNDFH-II”) (all manufactured by Oxford Glycosystems) were fluorescently-labeled with aminopyridine and used. The substrates were fluorescently-labeled according to a conventional method [Agric. Biol. Chem., 54, 2169 (1990)].
After carrying out the reaction on each substrate using an assay solution containing UDP-GlcNAc (saccharide donor) and an assay solution containing no donor and subsequently analyzing by HPLC, peaks appeared only in the assay solution containing UDP-GlcNAc was defined as products.
The assay solution after completion of the reaction was treated at 100° C. for 5 minutes and then centrifuged at 10,000×g for 5 minutes to obtain a supernatant, and a part thereof (5 μl) was subjected to HPLC.
The HPLC was carried out using TSK-gel ODS-80Ts Column (4.6×300 mm; manufactured by TOSOH) and 0.02 mol/l ammonium acetate buffer (pH 4.0) as the eluant at an elution temperature of 50° C. and a flow rate of 0.5 ml/min.
Detection and determination of products were carried out using a fluorescence spectrophotometer FP-920 (manufactured by JASCO Corporation) (excitation wavelength: 320 nm, radiation wavelength: 400 nm).

[2] = molecular target: T1, G6sec2; test: β1,3-N-acetylglucosaminyltransferase activity of purified FLAG peptide-fused G6 polypeptide, 2-aminobenzamide-labeled oligosaccharide substrates; details: second enzyme-adsorbed ANTI-FLAG M1 AFFINITY GEL (printed G6sec1-adsorbed gel) used as enzyme
[3] = molecular target: T1, G6sec2; test: β1,3-N-acetylglucosaminyltransferase activity using unlabeled oligosaccharides as substrates (HPAE/PAD); details: unlabeled oligosaccharide 10 mmol/l, 37° C., 16 hours
Description: The glycosyltransferase reaction was carried out as follows. The reaction was carried out at 37° C. for 16 hours in 40 μl of an assay solution [50 mmol/l MOPS (pH 7.5), 5 mmol/l UDP-GlcNAc (manufactured by SIGMA), 5 mmol/l MnCl2, 10 mmol/l sugar chain substrate, a purified enzyme solution (G6sec2)]. Next, the mixture was treated at 100° C. for 5 minutes and then centrifuged at 10,000×g for 20 minutes to obtain a supernatant, and a part thereof was analyzed using HPAE/PAD ([…]; manufactured by DIONEX). The method was specifically carried out according to a conventional method [Anal. Biochem., 189, 151-162 (1990), J. Biol. Chem., 273, 433-440 (1998)].
As a purified enzyme (G6sec2), […] of the enzyme obtained in the above (2) was used. As substrates, unlabeled oligosaccharides [lactose (Galβ1-4Glc) and LNnT] were used.
After the reaction on each substrate using an assay solution containing UDP-GlcNAc (saccharide donor) and an assay solution containing no donor, analysis was carried out using HPAE/PAD and peaks appeared only in the assay solution containing UDP-GlcNAc were defined as products. The product was identified using coincidence of its elution time with that of standard sugar chain as the index. As standard sugar chains, GlcNAcβ1-3Galβ1,4Glc and GlcNAcβ1-3Galβ1,4GlcNAcβ1-3Galβ1-4Glc were used.

Relative activity (%) ([1]; pyridylaminated oligosaccharides 50 μmol/l, LNnT defined as 100%): 100% | conversion efficiency of the substrate into the product ([1]; pyridylaminated substrate 50 μmol/l): 12.8% | conversion efficiency of the substrate [2]: 20.2% | conversion efficiency into the product [3]: 0.48%
Compound: CC(=O)N[C@H]1[C@H](O[C@H]2[C@@H](O)[C@@H](CO)O[C@@H](O[C@H]3[C@H](O)[C@@H](O)C(O)O[C@@H]3CO)[C@@H]2O)O[C@H](CO)[C@@H](O[C@@H]2O[C@H](CO)[C@H](O)[C@H](O)[C@H]2O)[C@@H]1O (mixture of isomers) [LNnT, lacto-N-neotetraose]
